From the supplement of paper PMC8967900

Tests used:
Assay in all cases: selective drug sensitivity score (sDSS, relative to normal bone marrow) (sDSS (score)); higher = more potent and effective on the cell line relative to normal bone marrow cells
Conditions in all cases: 72 h
[1] = tested on: RCH-ACV
[2] = tested on: MN-60
[3] = tested on: HPB-ALL
[4] = tested on: TANOUE
[5] = tested on: MHH-CALL-2
[6] = tested on: CCRF-CEM
[7] = tested on: COG-LL-319h
[8] = tested on: ALL-SIL
[9] = tested on: MHH-CALL-4
[10] = tested on: COG-LL-332h
[11] = tested on: COG-LL-355h
[12] = tested on: MOLT-4
[13] = tested on: NALM-6
[14] = tested on: COG-LL-317
[15] = tested on: P30-OHKUBO
[16] = tested on: REH
[17] = tested on: KARPAS-45
[18] = tested on: MOLT-16
[19] = tested on: PF-382
[20] = tested on: MOLT-14
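Further: ALL cell lines in 384-well plates, five doses spanning 10,000-fold, each plate scaled between vehicle and 100 µmol/L benzalkonium chloride controls, sDSS an adapted area-under-curve metric.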

Row | Structure (SMILES) | selective drug sensitivity score [1] | selective drug sensitivity score [2] | selective drug sensitivity score [3] | selective drug sensitivity score [4] | selective drug sensitivity score [5] | selective drug sensitivity score [6] | selective drug sensitivity score [7] | selective drug sensitivity score [8] | selective drug sensitivity score [9] | selective drug sensitivity score [10] | selective drug sensitivity score [11] | selective drug sensitivity score [12] | selective drug sensitivity score [13] | selective drug sensitivity score [14] | selective drug sensitivity score [15] | selective drug sensitivity score [16] | selective drug sensitivity score [17] | selective drug sensitivity score [18] | selective drug sensitivity score [19] | selective drug sensitivity score [20]
1 | CCc1c(C(=O)C(N)=O)c2c(OCC(=O)O)cccc2n1Cc1ccccc1 [Varespladib] (top concentration 10000 nM) | -0.84 | -0.84 | -0.84 | -0.84 | -0.84 | -0.84 | -0.84 | -0.84 | 3.56 | -0.64 | -0.84 | -0.84 | -0.84 | -0.74 | -0.84 | -0.84 | -0.84 | 1.76 | -0.84 | -0.84
2 | O=C1NC(=O)[C@@H](c2cn3c4c(cccc24)CCC3)[C@@H]1c1c[nH]c2ccccc12 [Tivantinib] (top concentration 1000 nM) | 4.28 | 3.78 | 2.88 | -1.32 | 8.48 | 3.98 | 3.58 | 7.18 | 4.88 | 3.48 | 0.18 | 3.28 | 5.08 | 3.68 | 6.58 | 7.78 | 4.08 | 3.48 | 2.78 | 3.18
3 | CCOc1ccn(-c2ccc(F)cc2)c(=O)c1C(=O)Nc1ccc(Oc2ccnc(N)c2Cl)c(F)c1 (top concentration 2500 nM) | 1 | 0 | 0 | 0 | 0 | 0.6 | 0 | 8 | 0 | 3.2 | 0 | 0.1 | 2 | 0 | 1.5 | 1.3 | 2.2 | 0 | 0 | 0
4 | CCCCCCCCc1ccc(CCC(N)(CO)CO)cc1 [Fingolimod] (top concentration 10000 nM) | 0.98 | 1.28 | 1.68 | 0.78 | 8.88 | 0.98 | 0.28 | 1.98 | 1.58 | 1.38 | 6.88 | 1.78 | 1.58 | 1.08 | 1.38 | -1.52 | -0.02 | 5.38 | -0.62 | 2.08
5 | O=C(NOCCO)c1ccc2cncn2c1Nc1ccc(I)cc1F [GDC-0623] (top concentration 2500 nM) | -3.4 | -3.4 | 3.6 | -3.4 | 0.6 | -1 | -2.1 | -3.4 | -2.1 | -1.8 | -0.4 | -3.3 | 3.8 | -0.8 | -2.4 | -3.4 | -3.1 | -1.6 | -3.3 | -1.6
6 | CC(=O)O[C@H]1C(=O)[C@@]2(C)[C@H]([C@H](OC(=O)c3ccccc3)[C@]3(O)C[C@H](OC(=O)[C@H](O)[C@@H](NC(=O)c4ccccc4)c4ccccc4)C(C)=C1C3(C)C)[C@]1(OC(C)=O)CO[C@@H]1C[C@@H]2O [Paclitaxel] (top concentration 1000 nM) | 21.8 | -0.36 | 14.1 | -10.8 | 17.3 | 18.3 | 21.5 | 20.8 | 7.24 | 20.5 | 5.14 | 19.3 | 16.7 | 19.6 | 22 | 23.1 | 18.3 | 21.7 | 13.2 | 19
7 | O=C(Nc1cc(Cl)cc2c1[nH]c1cnccc12)c1cccnc1 [PS-1145] (top concentration 25000 nM) | 3.04 | -0.46 | -0.46 | -0.46 | 6.74 | -0.46 | -0.46 | -0.46 | -0.46 | -0.46 | -0.46 | -0.46 | -0.46 | -0.46 | 1.94 | 1.94 | 0.34 | -0.16 | -0.46 | -0.46
8 | O=C(O)CC1CC(c2ccccc2)=NO1 (stereo not given) [VGX-1027] (top concentration 10000 nM) | -0.04 | -0.04 | -0.04 | -0.04 | -0.04 | -0.04 | -0.04 | -0.04 | -0.04 | -0.04 | -0.04 | -0.04 | -0.04 | -0.04 | -0.04 | -0.04 | -0.04 | 0.16 | -0.04 | -0.04
9 | O=c1ncn2nc(Sc3ccc(F)cc3F)ccc2c1-c1c(Cl)cccc1Cl [Neflamapimod] (top concentration 10000 nM) | 6.7 | 1 | 0.8 | 1.4 | 1.8 | 0 | 0 | 1.3 | 0 | 0.3 | 2.2 | 0 | 0.6 | 1.7 | 2.2 | 3.1 | 0.1 | 2.1 | 0.5 | 0
10 | Cc1c2oc3c(C)ccc(C(=O)N[C@@H]4C(=O)N[C@H](C(C)C)C(=O)N5CCC[C@H]5C(=O)N(C)CC(=O)N(C)[C@@H](C(C)C)C(=O)O[C@@H]4C)c3nc-2c(C(=O)N[C@@H]2C(=O)N[C@H](C(C)C)C(=O)N3CCC[C@H]3C(=O)N(C)CC(=O)N(C)[C@@H](C(C)C)C(=O)O[C@@H]2C)c(N)c1=O [Dactinomycin] (top concentration 1000 nM) | 18.5 | 8.94 | 6.14 | -11.2 | 12.4 | 7.04 | 5.94 | 8.04 | 11.6 | 14.5 | 8.54 | 17.3 | 12.5 | 20.7 | 19.1 | 16.3 | 8.44 | 18.8 | 3.64 | 16.9
11 | COc1cc(N2CCN(C)CC2)ccc1Nc1nccc(-c2cn(C)c3cnccc23)n1 [AZ191] (top concentration 10000 nM) | 2.38 | -1.92 | -4.72 | -4.62 | 3.88 | -1.42 | -2.92 | -1.52 | 1.98 | -0.02 | -0.02 | -3.32 | -1.72 | 0.58 | -0.72 | 0.48 | 0.98 | -1.32 | -1.82 | -1.32
12 | CCCCCCCCCCCCCCCCCCOP(=O)([O-])OC1CC[N+](C)(C)CC1 [Perifosine] (top concentration 2500 nM) | 2.34 | -0.36 | 3.64 | -0.36 | -0.26 | -0.16 | -0.26 | -0.36 | -0.16 | -0.36 | 0.64 | -0.36 | -0.36 | -0.36 | -0.36 | -0.36 | -0.26 | -0.36 | -0.36 | -0.36
13 | C[C@@H]1CCN(C(=O)CC#N)C[C@@H]1N(C)c1ncnc2[nH]ccc12 [Tofacitinib] (top concentration 5000 nM) | -7.86 | -7.86 | -7.86 | -7.86 | -7.86 | -7.86 | -7.86 | -7.86 | -4.96 | -7.86 | 0.44 | -7.86 | -7.86 | -7.86 | -6.66 | -7.66 | -7.86 | -7.86 | -7.36 | -7.66
14 | CC[C@H](CO)Nc1nc(NCc2ccccc2)c2ncn(C(C)C)c2n1 [Seliciclib] (top concentration 10000 nM) | 2.16 | -1.04 | -0.64 | -1.04 | 1.26 | 2.06 | 1.66 | 3.06 | 0.16 | 2.16 | 2.46 | -1.04 | -1.04 | 3.56 | -0.14 | -0.14 | 1.96 | 0.26 | -1.04 | -1.04
15 | CC(C)C[C@H](NC(=O)[C@@H](COC(C)(C)C)NC(=O)[C@H](Cc1ccc(O)cc1)NC(=O)[C@H](CO)NC(=O)[C@H](Cc1c[nH]c2ccccc12)NC(=O)[C@H](Cc1cnc[nH]1)NC(=O)[C@@H]1CCC(=O)N1)C(=O)N[C@@H](CCCNC(=N)N)C(=O)N1CCC[C@H]1C(=O)NNC(N)=O [Goserelin] (top concentration 10000 nM) | -0.06 | -0.06 | -0.06 | -0.06 | -0.06 | -0.06 | 4.84 | -0.06 | 0.14 | -0.06 | -0.06 | -0.06 | -0.06 | -0.06 | -0.06 | 0.14 | -0.06 | 0.14 | -0.06 | -0.06
16 | C[C@H]1C[C@@H](n2c(Nc3ccc(OC(F)(F)F)cc3)nc3cc(CCC(=O)O)ccc32)CC(C)(C)C1 (top concentration 10000 nM) | -0.14 | -0.04 | 5.56 | -0.14 | 0.96 | 1.56 | -0.14 | 1.06 | -0.14 | 1.36 | 2.16 | 3.06 | 0.16 | 2.56 | -0.14 | 0.36 | 2.76 | 5.66 | 0.66 | 2.96
17 | Clc1ccc(C(c2ccccc2Cl)C(Cl)Cl)cc1 (stereo not given) [Mitotane] (top concentration 10000 nM) | -0.08 | -0.08 | 5.12 | -0.08 | 1.32 | -0.08 | -0.08 | -0.08 | 0.12 | 0.92 | 0.02 | -0.08 | -0.08 | -0.08 | -0.08 | -0.08 | 0.02 | -0.08 | 0.12 | 0.32
